Patent US6676928B2, “Perfluoroalkyl-containing complexes with polar radicals, process for their production and their use” (Schering Aktiengesellschaft, priority 2000, dated 2004)

Assay: Organ distribution (including tumor and lymph node concentration) after intravenous administration in prostate-cancer-carrying rats
Type: in vivo, rats (Cop-inbreeding, Dunning R3327 MAT-Lu prostate cancer)
Conditions: rat i.v. 100 μmol Gd/kg
Text: Organ Distribution (Including Tumor and Lymph Node Concentration) After Intravenous Administration of the Contrast Medium According to the Invention From Example 3 in Prostate-cancer-Carrying Rats.
After intravenous administration of 100 μmol of total gadolinium/kg of body weight of the title compound of Example 3 in rats (Cop-inbreeding Dunning R3327 MAT-Lu prostate cancer i.m.-implanted 12 days earlier), the metal content in various organs, in tumors and in lymph nodes (pooled as mesenteral and peripheral lymph nodes) was determined 10 minutes, 1 and 24 hours after administration (MW=SD, n=3).

[1] = blood (58 ml of blood/kg of body weight), 10 min p.i.
[2] = blood (58 ml of blood/kg of body weight), 1 h p.i.
[3] = blood (58 ml of blood/kg of body weight), 24 h p.i.
[4] = intestine (emptied), 10 min p.i.
[5] = mes. LK (pooled mesenteral lymph nodes), 10 min p.i.
[6] = mes. LK (pooled mesenteral lymph nodes), 1 h p.i.
[7] = mes. LK (pooled mesenteral lymph nodes), 24 h p.i.
[8] = muscle (only tissue sample from right lower leg muscle), 10 min p.i.
[9] = muscle (only tissue sample from right lower leg muscle), 1 h p.i.
[10] = muscle (only tissue sample from right lower leg muscle), 24 h p.i.
[11] = periph. LK (pooled peripheral lymph nodes), 10 min p.i.
[12] = periph. LK (pooled peripheral lymph nodes), 1 h p.i.
[13] = periph. LK (pooled peripheral lymph nodes), 24 h p.i.
[14] = remainder of the body, 24 h p.i.

CC(C(=O)NCC(=O)NCCCC[C@H](NC(=O)CNC(=O)C(C)N1CCN(CC(=O)[O-])CCN(CC(=O)[O-])CCN(CC(=O)[O-])CC1)C(=O)N1CCN(S(=O)(=O)C(F)(F)C(F)(F)C(F)(F)C(F)(F)C(F)(F)C(F)(F)C(F)(F)C(F)(F)F)CC1)N1CCN(CC(=O)[O-])CCN(CC(=O)[O-])CCN(CC(=O)[O-])CC1.[Gd+3].[Gd+3] (stereo partly shown) [Example 3]
% Dosis pro Gesamtgewebe, Summe der Organe (sum total of all of the organs) (10 min p.i., less the remainder of the body): 46,35%
% Dosis pro Gesamtgewebe, Summe der Organe (sum total of all of the organs) (1 h p.i., less the remainder of the body): 41,79%
% Dosis pro Gesamtgewebe, Bilanz (balance) (24 h p.i.): 96,24%
% Dosis pro Gesamtgewebe, Summe der Organe (sum total of all of the organs) (24 h p.i.): 50,95%
% Dosis pro Gesamtgewebe (% dose per total tissue) [1]: 35,18%
Gd-Konzentration (Gd-concentration) [1]: 621 µmol/L
% Dosis pro Gesamtgewebe (% dose per total tissue) [2]: 30,63%
Gd-Konzentration (Gd-concentration) [2]: 534 µmol/L
% Dosis pro Gesamtgewebe (% dose per total tissue) [3]: 9,58%
Gd-Konzentration (Gd-concentration) [3]: 169 µmol/L
% Dosis pro Gesamtgewebe (% dose per total tissue) (brain, 10 min p.i.): 0,09%
Gd-Konzentration (Gd-concentration) (brain, 10 min p.i.): 16 µmol/L
% Dosis pro Gesamtgewebe (% dose per total tissue) (brain, 1 h p.i.): 0,10%
Gd-Konzentration (Gd-concentration) (brain, 1 h p.i.): 16 µmol/L
% Dosis pro Gesamtgewebe (% dose per total tissue) (brain, 24 h p.i.): 0,03%
Gd-Konzentration (Gd-concentration) (brain, 24 h p.i.): 5 µmol/L
% Dosis pro Gesamtgewebe (% dose per total tissue) (feces 0-24 h): 8,91%
Gd-Konzentration (Gd-concentration) (feces 0-24 h): 561 µmol/L
% Dosis pro Gesamtgewebe (% dose per total tissue) (femur, 10 min p.i.): 0,50%
Gd-Konzentration (Gd-concentration) (femur, 10 min p.i.): 61 µmol/L
% Dosis pro Gesamtgewebe (% dose per total tissue) (femur, 1 h p.i.): 0,50%
Gd-Konzentration (Gd-concentration) (femur, 1 h p.i.): 64 µmol/L
% Dosis pro Gesamtgewebe (% dose per total tissue) (femur, 24 h p.i.): 0,26%
Gd-Konzentration (Gd-concentration) (femur, 24 h p.i.): 33 µmol/L
% Dosis pro Gesamtgewebe (% dose per total tissue) (heart, 10 min p.i.): 0,40%
Gd-Konzentration (Gd-concentration) (heart, 10 min p.i.): 177 µmol/L
% Dosis pro Gesamtgewebe (% dose per total tissue) (heart, 1 h p.i.): 0,33%
Gd-Konzentration (Gd-concentration) (heart, 1 h p.i.): 151 µmol/L
% Dosis pro Gesamtgewebe (% dose per total tissue) (heart, 24 h p.i.): 0,15%
Gd-Konzentration (Gd-concentration) (heart, 24 h p.i.): 65 µmol/L
% Dosis pro Gesamtgewebe (% dose per total tissue) [4]: 2,48%
Gd-Konzentration (Gd-concentration) [4]: 146 µmol/L
% Dosis pro Gesamtgewebe (% dose per total tissue) (intestine (emptied), 1 h p.i.): 1,85%
Gd-Konzentration (Gd-concentration) (intestine (emptied), 1 h p.i.): 130 µmol/L
% Dosis pro Gesamtgewebe (% dose per total tissue) (intestine (emptied), 24 h p.i.): 1,63%
Gd-Konzentration (Gd-concentration) (intestine (emptied), 24 h p.i.): 101 µmol/L
% Dosis pro Gesamtgewebe (% dose per total tissue) (kidney, 10 min p.i.): 1,70%
Gd-Konzentration (Gd-concentration) (kidney, 10 min p.i.): 359 µmol/L
% Dosis pro Gesamtgewebe (% dose per total tissue) (kidney, 1 h p.i.): 2,00%
Gd-Konzentration (Gd-concentration) (kidney, 1 h p.i.): 394 µmol/L
% Dosis pro Gesamtgewebe (% dose per total tissue) (kidney, 24 h p.i.): 1,38%
Gd-Konzentration (Gd-concentration) (kidney, 24 h p.i.): 292 µmol/L
% Dosis pro Gesamtgewebe (% dose per total tissue) (liver, 10 min p.i.): 3,79%
Gd-Konzentration (Gd-concentration) (liver, 10 min p.i.): 137 µmol/L
% Dosis pro Gesamtgewebe (% dose per total tissue) (liver, 1 h p.i.): 3,93%
Gd-Konzentration (Gd-concentration) (liver, 1 h p.i.): 136 µmol/L
% Dosis pro Gesamtgewebe (% dose per total tissue) (liver, 24 h p.i.): 5,37%
Gd-Konzentration (Gd-concentration) (liver, 24 h p.i.): 172 µmol/L
% Dosis pro Gesamtgewebe (% dose per total tissue) (lung, 10 min p.i.): 1,30%
Gd-Konzentration (Gd-concentration) (lung, 10 min p.i.): 344 µmol/L
% Dosis pro Gesamtgewebe (% dose per total tissue) (lung, 1 h p.i.): 1,27%
Gd-Konzentration (Gd-concentration) (lung, 1 h p.i.): 321 µmol/L
% Dosis pro Gesamtgewebe (% dose per total tissue) (lung, 24 h p.i.): 0,56%
Gd-Konzentration (Gd-concentration) (lung, 24 h p.i.): 146 µmol/L
% Dosis pro Gesamtgewebe (% dose per total tissue) [5]: 0,11%
Gd-Konzentration (Gd-concentration) [5]: 155 µmol/L
% Dosis pro Gesamtgewebe (% dose per total tissue) [6]: 1,10%
Gd-Konzentration (Gd-concentration) [6]: 160 µmol/L
% Dosis pro Gesamtgewebe (% dose per total tissue) [7]: 0,09%
Gd-Konzentration (Gd-concentration) [7]: 127 µmol/L
% Dosis pro Gesamtgewebe (% dose per total tissue) [8]: 0,12%
Gd-Konzentration (Gd-concentration) [8]: 41 µmol/L
% Dosis pro Gesamtgewebe (% dose per total tissue) [9]: 0,08%
Gd-Konzentration (Gd-concentration) [9]: 40 µmol/L
% Dosis pro Gesamtgewebe (% dose per total tissue) [10]: 0,03%
Gd-Konzentration (Gd-concentration) [10]: 13 µmol/L
% Dosis pro Gesamtgewebe (% dose per total tissue) (pancreas, 10 min p.i.): 0,25%
Gd-Konzentration (Gd-concentration) (pancreas, 10 min p.i.): 99 µmol/L
% Dosis pro Gesamtgewebe (% dose per total tissue) (pancreas, 1 h p.i.): 0,23%
Gd-Konzentration (Gd-concentration) (pancreas, 1 h p.i.): 95 µmol/L
% Dosis pro Gesamtgewebe (% dose per total tissue) (pancreas, 24 h p.i.): 0,18%
Gd-Konzentration (Gd-concentration) (pancreas, 24 h p.i.): 55 µmol/L
% Dosis pro Gesamtgewebe (% dose per total tissue) [11]: 0,13%
Gd-Konzentration (Gd-concentration) [11]: 115 µmol/L
% Dosis pro Gesamtgewebe (% dose per total tissue) [12]: 0,19%
Gd-Konzentration (Gd-concentration) [12]: 186 µmol/L
% Dosis pro Gesamtgewebe (% dose per total tissue) [13]: 0,11%
Gd-Konzentration (Gd-concentration) [13]: 108 µmol/L
% Dosis pro Gesamtgewebe (% dose per total tissue) [14]: 31,05%
Gd-Konzentration (Gd-concentration) [14]: 103 µmol/L
% Dosis pro Gesamtgewebe (% dose per total tissue) (spleen, 10 min p.i.): 0,25%
Gd-Konzentration (Gd-concentration) (spleen, 10 min p.i.): 184 µmol/L
% Dosis pro Gesamtgewebe (% dose per total tissue) (spleen, 1 h p.i.): 0,23%
Gd-Konzentration (Gd-concentration) (spleen, 1 h p.i.): 161 µmol/L
% Dosis pro Gesamtgewebe (% dose per total tissue) (spleen, 24 h p.i.): 0,25%
Gd-Konzentration (Gd-concentration) (spleen, 24 h p.i.): 161 µmol/L
% Dosis pro Gesamtgewebe (% dose per total tissue) (stomach (emptied), 10 min p.i.): 0,47%
Gd-Konzentration (Gd-concentration) (stomach (emptied), 10 min p.i.): 90 µmol/L
% Dosis pro Gesamtgewebe (% dose per total tissue) (stomach (emptied), 1 h p.i.): 0,50%
Gd-Konzentration (Gd-concentration) (stomach (emptied), 1 h p.i.): 93 µmol/L
% Dosis pro Gesamtgewebe (% dose per total tissue) (stomach (emptied), 24 h p.i.): 0,27%
Gd-Konzentration (Gd-concentration) (stomach (emptied), 24 h p.i.): 48 µmol/L
% Dosis pro Gesamtgewebe (% dose per total tissue) (tumor, 10 min p.i.): 0,20%
Gd-Konzentration (Gd-concentration) (tumor, 10 min p.i.): 82 µmol/L
% Dosis pro Gesamtgewebe (% dose per total tissue) (tumor, 1 h p.i.): 0,40%
Gd-Konzentration (Gd-concentration) (tumor, 1 h p.i.): 126 µmol/L
% Dosis pro Gesamtgewebe (% dose per total tissue) (tumor, 24 h p.i.): 0,46%
Gd-Konzentration (Gd-concentration) (tumor, 24 h p.i.): 100 µmol/L
% Dosis pro Gesamtgewebe (% dose per total tissue) (urine 0-24 h): 36,38%
Gd-Konzentration (Gd-concentration) (urine 0-24 h): 60 µmol/L
